Laboratory results: ChEMBL document CHEMBL1201862, “PubChem BioAssay data set” (2004)
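Where inhibition never reached the appropriate level, the endpoint shown equals the highest concentration tested. Otherwise, values were interpolated linearly from a five-concentration, 48-hour dose response in 96-well plates. Abbreviation: GI50, concentration required for 50% inhibition of growth.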 Calls of active or inactive are those of the source. No stated cut-off is given here; in the data, active = GI50 up to about 1.1 µM and inactive = higher.

Tests used:
Assay in all cases: inhibition of tumour cell growth, NCI panel, 48 h
UO-31 = system: UO-31
OVCAR-3 = system: OVCAR-3
NCI-H226 = system: NCI-H226
RPMI-8226 = system: RPMI-8226
ACHN = system: ACHN
DU-145 = system: DU-145
KM12 = system: KM12
HT-29 = system: HT-29
SK-MEL-28 = system: SK-MEL-28
M14 = system: M14
SK-OV-3 = system: SK-OV-3
NCI-H522 = system: NCI-H522
OVCAR-4 = system: OVCAR-4
MDA-N = system: MDA-N
Hs-578T = system: Hs-578T
786-0 = system: 786-0
U-251 = system: U-251
EKVX = system: EKVX
LOX IMVI = system: LOX IMVI
MDA-MB-231 = system: MDA-MB-231

Measured: GI50

C/C(=N\Nc1nc2ccccc2s1)c1cccc[n+]1[O-]
inactive: UO-31 20 µM | OVCAR-3 24.8 µM | NCI-H226 55.2 µM | RPMI-8226 41.1 µM | ACHN 37.1 µM | DU-145 > 100 µM | KM12 30.1 µM | HT-29 41.5 µM | SK-MEL-28 > 100 µM | M14 32.2 µM | SK-OV-3 37.4 µM | NCI-H522 26.7 µM | OVCAR-4 86.3 µM | MDA-N 76.2 µM | Hs-578T > 100 µM | 786-0 47.1 µM | U-251 47 µM | EKVX 2.33 µM | LOX IMVI 48.6 µM | MDA-MB-231 49.9 µM

COc1cccc(C(C#N)NC23CC4CC(CC(C4)C2)C3)c1 (stereo not drawn)
inactive: UO-31 > 100 µM | OVCAR-3 > 100 µM | NCI-H226 > 100 µM | RPMI-8226 > 100 µM | ACHN > 100 µM | DU-145 > 100 µM | KM12 > 100 µM | HT-29 > 100 µM | SK-MEL-28 > 100 µM | M14 > 100 µM | SK-OV-3 > 100 µM | NCI-H522 > 100 µM | OVCAR-4 > 100 µM | MDA-N > 100 µM | Hs-578T > 100 µM | 786-0 > 100 µM | U-251 > 100 µM | EKVX 85.5 µM | LOX IMVI > 100 µM | MDA-MB-231 > 100 µM

CN1C(=S)C(c2ccccc2)Sc2ccccc21 (stereo not drawn)
inactive: UO-31 35.6 µM | OVCAR-3 48.2 µM | NCI-H226 90.6 µM | RPMI-8226 > 100 µM | ACHN > 100 µM | DU-145 > 100 µM | KM12 63.7 µM | HT-29 > 10 µM | SK-MEL-28 > 100 µM | M14 > 100 µM | SK-OV-3 42.8 µM | NCI-H522 54.3 µM | OVCAR-4 > 100 µM | MDA-N 77.8 µM | Hs-578T 35.6 µM | 786-0 > 100 µM | U-251 > 100 µM | EKVX 14 µM | LOX IMVI 77.1 µM | MDA-MB-231 > 100 µM

CC(=O)O[C@H]1CC[C@@]2(C)C(=CC[C@@H]3[C@@H]2CC[C@]2(C)c4c(cc(C#N)c(=N)n4C(C)=O)C[C@@H]32)C1
inactive: UO-31 22 µM | OVCAR-3 17.6 µM | NCI-H226 27.4 µM | ACHN 20.1 µM | DU-145 27.1 µM | KM12 17.9 µM | HT-29 17.9 µM | SK-MEL-28 18.7 µM | M14 16.9 µM | SK-OV-3 6.7 µM | NCI-H522 17.9 µM | OVCAR-4 18.7 µM | MDA-N 21 µM | Hs-578T 25.5 µM | 786-0 20.5 µM | U-251 29 µM | EKVX 15.9 µM | LOX IMVI 16.7 µM | MDA-MB-231 31.1 µM

COc1cc2c(cc1OC)[C@@H]1[C@H](C#N)C(=O)C(C)(C)N1CC2
inactive: UO-31 > 100 µM | OVCAR-3 > 100 µM | NCI-H226 > 100 µM | RPMI-8226 53.7 µM | ACHN > 100 µM | DU-145 > 100 µM | KM12 > 100 µM | HT-29 > 100 µM | SK-MEL-28 > 100 µM | M14 > 100 µM | SK-OV-3 > 100 µM | NCI-H522 > 100 µM | OVCAR-4 > 100 µM | MDA-N > 100 µM | Hs-578T > 100 µM | 786-0 > 100 µM | U-251 > 100 µM | EKVX > 100 µM | LOX IMVI > 100 µM | MDA-MB-231 28.6 µM

O=C(O)CCSc1ncnc2[nH]cnc12
inactive: UO-31 > 100 µM | OVCAR-3 > 100 µM | NCI-H226 64.7 µM | RPMI-8226 > 100 µM | ACHN > 100 µM | DU-145 > 100 µM | KM12 > 100 µM | HT-29 > 100 µM | SK-MEL-28 > 100 µM | M14 > 100 µM | SK-OV-3 > 100 µM | NCI-H522 > 100 µM | OVCAR-4 > 100 µM | MDA-N > 100 µM | Hs-578T > 100 µM | 786-0 > 100 µM | U-251 > 100 µM | EKVX > 100 µM | LOX IMVI > 100 µM | MDA-MB-231 > 100 µM

N#Cc1nc(-c2cccc(-c3nc(C#N)c(N)o3)n2)oc1N
inactive: UO-31 > 100 µM | OVCAR-3 > 100 µM | NCI-H226 > 100 µM | RPMI-8226 > 100 µM | ACHN > 100 µM | DU-145 > 100 µM | KM12 > 100 µM | HT-29 > 100 µM | SK-MEL-28 > 100 µM | M14 > 100 µM | SK-OV-3 > 100 µM | NCI-H522 > 100 µM | OVCAR-4 > 100 µM | MDA-N > 100 µM | Hs-578T > 100 µM | 786-0 > 100 µM | U-251 > 100 µM | EKVX > 100 µM | LOX IMVI > 100 µM | MDA-MB-231 > 100 µM

CN1C2CCC1CN(CCOC(c1ccc(F)cc1)c1ccc(F)cc1)C2
inactive: UO-31 33.2 µM | OVCAR-3 47.1 µM | NCI-H226 32.3 µM | RPMI-8226 23.9 µM | ACHN 40.6 µM | DU-145 57.5 µM | KM12 21.8 µM | HT-29 19.5 µM | SK-MEL-28 15.5 µM | M14 20.1 µM | SK-OV-3 42.3 µM | NCI-H522 43.6 µM | OVCAR-4 43.8 µM | MDA-N 36 µM | Hs-578T 42.7 µM | 786-0 19.6 µM | U-251 26.1 µM | EKVX 23.8 µM | LOX IMVI 19.8 µM | MDA-MB-231 22.9 µM

Cc1cccc2c(=O)c3cccc([C@H](C)C(=O)O)c3oc12
inactive: UO-31 > 100 µM | OVCAR-3 > 100 µM | NCI-H226 > 100 µM | RPMI-8226 > 100 µM | ACHN > 100 µM | DU-145 > 100 µM | KM12 > 100 µM | HT-29 > 100 µM | SK-MEL-28 > 100 µM | M14 > 100 µM | SK-OV-3 > 100 µM | NCI-H522 > 100 µM | OVCAR-4 > 100 µM | MDA-N > 100 µM | Hs-578T > 100 µM | 786-0 > 100 µM | U-251 > 100 µM | EKVX > 100 µM | LOX IMVI > 100 µM | MDA-MB-231 > 100 µM

NC(CC1=CS(=O)(=O)c2ccc(Cl)cc21)C(=O)O (stereo not drawn)
inactive: OVCAR-3 > 100 µM | NCI-H226 > 100 µM | RPMI-8226 > 100 µM | ACHN > 100 µM | DU-145 > 100 µM | KM12 > 100 µM | HT-29 > 100 µM | SK-MEL-28 > 100 µM | M14 > 100 µM | SK-OV-3 > 100 µM | NCI-H522 > 100 µM | OVCAR-4 > 100 µM | MDA-N > 100 µM | Hs-578T 70.5 µM | 786-0 > 100 µM | U-251 > 100 µM | EKVX > 100 µM | LOX IMVI > 100 µM | MDA-MB-231 > 100 µM
